Measured values as given in patent publication US10870851B2, “Non-coding RNAs linked to immortality and associated methods and compositions” (The Regents of the University of California, priority 2015, dated 2020).
“Also recorded” adds a separate entry of the source.

Assays:
[1] = system: Immortal, MORT(−) 184Dp16sMY HMEC; assay: Reversal of immortalization: lentiviral restoration of MORT expression in immortal HMEC; format: cell-based, human; details: qRT/PCR during MORT-mediated senescence
Method: Clontech's Tet-On® 3G system was used to construct lentiviral vectors that express 1) the MORT lncRNA sequence (MORT-Exact)(SEQ ID NO:8) and 2) an aberrant MORT lncRNA to which 60 nucleotides were added at the 5′ end of MORT that was predicted to disrupt RNA secondary structure rendering MORT either hypomorphic or completely nonfunctional (MORT-null). […] Immortal, MORT(−) 184Dp16sMY HMEC were either untreated or transduced with a lentivirus that expressed MORT-Exact, MORT-Null, or eGFP. Cells transduced with MORT-Exact cease growth and take on senescent phenotypes (FIG. 19A-19B).

[2] = MORT transcript half-life using actinomycin D treatment; format: cell-based; details: actinomycin D 1 μg/ml; c-MYC and GAPDH as reference genes
Method: FIG. 7 is a graph showing determination of MORT transcript half-life using actinomycin D (1 μg/ml) treatment. c-MYC was used as a short half-life reference gene and GAPDH was used as a long half-life reference gene. (Yang et al. 2003). […] The error bars show the SEM of 3 independent experiments.
(§1) The reverse transcription and real-time PCR was performed as previously described in Oshiro M M, Watts G S, Wozniak R J, Junk D J, Munoz-Rodriguez J L, Domann F E, Futscher B W. Mutant p53 and aberrant cytosine methylation cooperate to silence gene expression. Oncogene 2003; 22:3624-34 (reference 1 herein), and Vrba L, Junk D J, Novak P, Futscher B W. p53 induces distinct epigenetic states at its direct target promoters. BMC Genomics 2008; 9:486 (reference 41 herein), both incorporated herein by reference. Primers were designed for MORT, GAPDH, MYC and XIST and used with the Human Universal Probe Library Set (Roche Diagnostics). The cycle threshold (Ct) MORT values were normalized between the samples using GAPDH Ct values. The data were then converted into a value that is in log 2 scale, but increases with the expression level using formula 40-Ct. Since 40 was the total number of PCR cycles it was the lowest detectable expression level and therefore it was considered the background and set as 0 to display the data in the plots.

MCF7 = assay: 5-AdC treatment of MORT-negative breast tumor line MCF7; format: cell-based, human; details: 1 μM 5-AdC for 96 h
Method: (§2) Finite and immortalized HMEC were generated and grown as previously described^1, 2, 32. […] […]. Retroviral transduction was performed as described^1, 2. Breast tumor lines MDA-MB231, MDA-MB453, and MCF7 were grown as previously described^33, 34.
(§3) Cells were treated with 1 μM 5-aza-2′-deoxycytidine (Sigma) for 96 h, as previously described^33.
(§4) DNA methylation analysis by MassARRAY. DNA methylation analysis by Sequenom MassARRAY (Sequenom) was performed as described^40. Primer sequences are provided in FIG. 18 and are SEQ ID NOs: 3, 4, 5, and 6. Oligonucleotides used for MassARRAY analysis were ordered from Integrated DNA Technologies. Two MassARRAY amplicons covered 800 bp region including the first MORT exon and about 500 bp upstream MORT transcription start (FIG. 4C). The mean DNA methylation of all 26 informative CpG units within MassARRAY amplicons was used for data presentation and statistical analysis.
(§5) The reverse transcription and real-time PCR was performed as previously described in Oshiro M M, Watts G S, Wozniak R J, Junk D J, Munoz-Rodriguez J L, Domann F E, Futscher B W. Mutant p53 and aberrant cytosine methylation cooperate to silence gene expression. Oncogene 2003; 22:3624-34 (reference 1 herein), and Vrba L, Junk D J, Novak P, Futscher B W. p53 induces distinct epigenetic states at its direct target promoters. […]

MDA-MB453 = assay: 5-AdC treatment of MORT-negative breast tumor line MDA-MB453; format: cell-based, human; details: 1 μM 5-AdC for 96 h
Method: as §2, §3, §4, §5

184Dp16sMY HMEC = assay: 5-AdC treatment of immortalized MORT negative HMEC line 184Dp16sMY; format: cell-based, human; details: 96 h treatment, three concentrations of 5-AdC (FIG. 14)
Method: Finite and immortalized HMEC were generated and grown as previously described^1, 2, 32. […]. Retroviral transduction was performed as described^1, 2. Breast tumor lines MDA-MB231, MDA-MB453, and MCF7 were grown as previously described^33, 34. […]
as §1, with “plots. […]” for “plots.”

MDA-MB231 = assay: 5-AdC treatment of MORT-negative breast tumor line MDA-MB231; format: cell-based, human; details: 1 μM 5-AdC for 96 h
Method: as §2, §3, §4, §5

Compound	induced overexpression of p16 or p14 [1]	induction of p53 and p53 target genes MDM2, p21, PIG3, MASPIN [1]	MORT transcript half-life [2]	level of DNA methylation of the MORT promoter (MCF7; Sequenom MassARRAY)	MORT expression (transcript level) (MCF7; real-time PCR)	level of DNA methylation of the MORT promoter (MDA-MB453; Sequenom MassARRAY)	MORT expression (transcript level) (MDA-MB453; real-time PCR)	MORT transcription (transcript level) (184Dp16sMY HMEC)	level of DNA methylation of the MORT promoter (MDA-MB231; Sequenom MassARRAY)	MORT expression (transcript level) (MDA-MB231; real-time PCR)
MORT: long non-coding RNA (lincRNA), 1.53 kb, ribonucleotide sequence SEQ ID NO:7	not due to induced overexpression of p16 or p14	neither p53 nor well-defined p53 target genes, MDM2, p21, PIG3, and MASPIN were induced	~15 h	–	–	–	–	–	–	–
Nc1ncn([C@H]2C[C@H](O)[C@@H](CO)O2)c(=O)n1 [5-AdC, 5-aza-2′-deoxycytidine]	–	–	–	significant decrease	reactivation of MORT expression	significant decrease	reactivation of MORT expression	reactivation of MORT transcription; also recorded: increased MORT level	significant decrease	reactivation of MORT expression
